Legend:
Alternaria alternata = test: In vitro test for ED50 values, liquid culture, Alternaria alternata; format: cell-based; details: inhibition of spore germination and mycelium growth, 4 to 7 days incubation
Description: (§1) Example E: In Vitro Test for the Calculation of ED50-Values; Comparison of Compounds According to the Invention Vs. Compounds Encompassed by WO 2010/146116 A1
(§2) • Solvent: DMSO • Culture medium: 14.6 g anhydrous D-glucose (VWR), 7.1 g Mycological Peptone (Oxoid), 1.4 g granulated Yeast Extract (Merck) per 1 liter water • Inoculum: spore suspension
(§3) Fungicides were solubilized in DMSO and the resulting solutions used to prepare test solutions of different fungicide concentrations in the required range. The final concentration of DMSO used in the assay was <1% by volume.
(§4) A spore suspension was prepared and diluted to the desired spore density.
(§5) Fungicides were evaluated for their ability to inhibit spore germination and mycelium growth in liquid culture assay. The compounds were added in the desired concentration to the culture medium with spores. After 4 to 7 days incubation, fungi-toxicity of compounds was determined by spectrometric measurement of mycelium growth. Inhibition of fungal growth was determined by comparing the absorbance values in wells containing the fungicides with the absorbance in control wells without fungicides.

Pyricularia oryzae = format: cell-based; details: inhibition of spore germination and mycelium growth, liquid culture, 4 to 7 days incubation
Puccinia recondita = details: 500 ppm of active ingredient; preventive spray on young wheat plants; evaluated 11 days after inoculation
Description: Example A: In Vivo Preventive Test on Puccinia recondita (Brown Rust on Wheat)
(§6) • Solvent: 5% by volume of Dimethyl sulfoxide • 10% by volume of Acetone • Emulsifier: 1 μl of Tween® 80 per mg of active ingredient
(§7) The active ingredients are made soluble and homogenized in a mixture of Dimethyl sulfoxide/Acetone/Tween® 80 and then diluted in water to the desired concentration.
(§8) Control plants are treated only with an aqueous solution of Acetone/Dimethyl sulfoxide/Tween® 80.
After 24 hours, the plants are contaminated by spraying the leaves with an aqueous suspension of Puccinia recondita spores. The contaminated wheat plants are incubated for 24 hours at 20° C. and at 100% relative humidity and then for 10 days at 20° C. and at 70-80% relative humidity.
(§9) The test is evaluated 11 days after the inoculation.

Septoria tritici [1] = details: 500 ppm of active ingredient; preventive spray on young wheat plants; evaluated 24 days after inoculation
Description: as §6, §7, §8
After 24 hours, the plants are contaminated by spraying the leaves with an aqueous suspension of Septoria tritici spores. The contaminated wheat plants are incubated for 72 hours at 18° C. and at 100% relative humidity and then for 21 days at 20° C. and at 90% relative humidity.
The test is evaluated 24 days after the inoculation.

Sphaerotheca fuliginea = details: 500 ppm of active ingredient; preventive spray on young gherkin plants; evaluated 15 days after inoculation
Description: Example C: In Vivo Preventive Test on Sphaerotheca fuliginea (Powdery Mildew on Cucurbits)
as §6, §7, §8
After 24 hours, the plants are contaminated by spraying the leaves with an aqueous suspension of Sphaerotheca fuliginea spores. The contaminated gherkin plants are incubated for 72 hours at 18° C. and at 100% relative humidity and then for 12 days at 20° C. and at 70-80% relative humidity.
The test is evaluated 15 days after the inoculation.

Uromyces appendiculatus = details: 500 ppm of active ingredient; preventive spray on young bean plants; evaluated 11 days after inoculation
Description: as §6, §7, §8
After 24 hours, the plants are contaminated by spraying the leaves with an aqueous suspension of Uromyces appendiculatus spores. The contaminated bean plants are incubated for 24 hours at 20° C. and at 100% relative humidity and then for 10 days at 20° C. and at 70-80% relative humidity.
as §9

physchem = details: reversed phase HPLC column
Description: Calibration was done with straight-chain alkan2-ones (with 3 to 16 carbon atoms) with known Log P values (measurement of Log P values using retention times with linear interpolation between successive alkanones).

Botrytis cinerea = test: In vitro test for ED50 values, liquid culture, Botrytis cinerea; format: cell-based; details: inhibition of spore germination and mycelium growth, 4 to 7 days incubation
Description: as §1, §2, §3, §4, §5

Septoria tritici [2] = test: In vitro test for ED50 values, liquid culture, Septoria tritici; format: cell-based; details: inhibition of spore germination and mycelium growth, 4 to 7 days incubation
Description: as §1, §2, §3, §4, §5

Structure (SMILES) | Alternaria alternata ED50 value in ppm (Alternaria alternata) [ppm] | Pyricularia oryzae ED50 value in ppm (Pyricularia oryzae) [ppm] | efficacy (Puccinia recondita) | efficacy (Septoria tritici [1]) | efficacy (Sphaerotheca fuliginea) | efficacy (Uromyces appendiculatus) | chromatographic logP (physchem) | Botrytis cinerea ED50 value in ppm (Botrytis cinerea) [ppm] | Septoria tritici ED50 value in ppm (Septoria tritici [2]) [ppm]
Clc1ccc(Oc2ccc(C3(Cn4cncn4)OCCO3)c(Cl)n2)cc1 [I.01, 2-chloro-6-(4-chlorophenoxy)-3-[2-(1,2,4-triazol-1-ylmethyl)-1,3-dioxolan-2-yl]pyridine] | 0.12 | 0.56 | at least 70% | at least 70% | at least 70% | at least 70% | 2.86 | – | –
CC1COC(Cn2cncn2)(c2ccc(Oc3ccc(Cl)cc3)nc2Cl)O1 (stereo not drawn) [I.02] | – | 1.2 | – | – | – | – | – | 2.7 | 0.008
Clc1ccc(Oc2cc(Cl)c(C3(Cn4cncn4)OCCO3)cn2)cc1 [reference compound] | 0.5 | 1.3 | – | – | – | – | – | – | –
CC1COC(Cn2cncn2)(c2cnc(Oc3ccc(Cl)cc3)cc2Cl)O1 (stereo not drawn) [reference compound] | – | 9.5 | – | – | – | – | – | 8.9 | 0.013

Source: patent US20190281828A1 (priority 2016, published 2019)
